Paper PMC4490784, “Compensatory induction of MYC expression by sustained CDK9 inhibition via a BRD4-dependent mechanism” (eLife, 2015)

Assays:
Assay in all cases: KINOMEscan binding assay
[1] = molecular target: T1, ASK1 (Homo sapiens, UniProt Q99683); settings: read-out: % Retention on Solid Support
T1 construct: purchased DiscoveRx KINOMEscan
In short: (§1)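 Competitive displacement at the ATP site served as the measure. Over 400 kinases were included, each exposed to i-CDK9 at 1 and at 10 µM.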

[2] = molecular target: T2, BRAF (Homo sapiens, UniProt P15056); settings: read-out: % Retention on Solid Support
T2 construct: purchased DiscoveRx KINOMEscan
In short: as §1

[3] = molecular target: T3, CAMK2A (Homo sapiens, UniProt Q9UQM7); settings: read-out: % Retention on Solid Support
T3 construct: purchased DiscoveRx KINOMEscan
T3 sequence (Q9UQM7 whole entry): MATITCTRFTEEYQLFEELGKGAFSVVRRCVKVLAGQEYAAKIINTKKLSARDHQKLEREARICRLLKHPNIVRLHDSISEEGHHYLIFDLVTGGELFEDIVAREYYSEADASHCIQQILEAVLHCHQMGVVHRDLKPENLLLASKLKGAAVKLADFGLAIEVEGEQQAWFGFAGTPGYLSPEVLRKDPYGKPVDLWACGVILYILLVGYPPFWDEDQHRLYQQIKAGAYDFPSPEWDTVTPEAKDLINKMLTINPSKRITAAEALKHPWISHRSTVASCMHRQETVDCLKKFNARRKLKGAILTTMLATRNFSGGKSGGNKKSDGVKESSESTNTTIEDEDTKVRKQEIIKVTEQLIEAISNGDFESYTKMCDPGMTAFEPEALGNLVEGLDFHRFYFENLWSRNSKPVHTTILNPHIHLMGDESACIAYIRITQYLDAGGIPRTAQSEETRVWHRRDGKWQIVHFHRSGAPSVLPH
In short: as §1

[4] = molecular target: T4, CDK13 (Homo sapiens, UniProt Q14004); settings: 1 µM i-CDK9
T4 construct: purchased DiscoveRx
In short: as §1

[5] = molecular target: T5, DRAK2 (Homo sapiens, UniProt O94768); settings: read-out: % Retention on Solid Support
T5 construct: purchased DiscoveRx KINOMEscan
In short: as §1

[6] = molecular target: T6, EPHA1 (Homo sapiens, UniProt P21709); settings: read-out: % Retention on Solid Support
T6 construct: purchased DiscoveRx KINOMEscan
T6 sequence (P21709 26-976): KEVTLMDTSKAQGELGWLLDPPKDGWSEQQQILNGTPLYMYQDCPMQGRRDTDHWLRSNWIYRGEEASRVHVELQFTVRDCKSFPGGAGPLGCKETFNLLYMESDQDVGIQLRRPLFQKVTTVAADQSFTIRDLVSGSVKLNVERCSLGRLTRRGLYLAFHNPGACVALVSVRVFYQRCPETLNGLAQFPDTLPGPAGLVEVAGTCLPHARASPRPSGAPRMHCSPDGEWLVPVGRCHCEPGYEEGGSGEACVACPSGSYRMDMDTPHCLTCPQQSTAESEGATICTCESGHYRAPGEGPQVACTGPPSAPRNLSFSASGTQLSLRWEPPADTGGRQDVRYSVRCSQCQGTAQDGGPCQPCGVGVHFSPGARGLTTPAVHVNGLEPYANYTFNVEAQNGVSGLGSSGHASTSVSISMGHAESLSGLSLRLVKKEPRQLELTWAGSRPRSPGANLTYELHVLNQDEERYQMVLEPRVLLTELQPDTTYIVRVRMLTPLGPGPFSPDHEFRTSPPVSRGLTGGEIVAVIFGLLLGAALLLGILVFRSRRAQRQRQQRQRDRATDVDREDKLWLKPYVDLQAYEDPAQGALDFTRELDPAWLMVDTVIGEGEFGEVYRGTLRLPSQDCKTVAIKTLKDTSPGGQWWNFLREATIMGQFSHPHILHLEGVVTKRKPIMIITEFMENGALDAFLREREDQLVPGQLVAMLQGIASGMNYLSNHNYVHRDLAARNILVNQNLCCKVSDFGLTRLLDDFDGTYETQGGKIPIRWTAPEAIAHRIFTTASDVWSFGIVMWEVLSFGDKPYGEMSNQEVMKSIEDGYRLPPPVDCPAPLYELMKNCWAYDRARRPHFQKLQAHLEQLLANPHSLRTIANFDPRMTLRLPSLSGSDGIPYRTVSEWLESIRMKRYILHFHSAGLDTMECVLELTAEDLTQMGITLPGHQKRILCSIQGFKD
In short: as §1

[7] = molecular target: T7, EPHA6 (Homo sapiens, UniProt Q9UF33); settings: read-out: % Retention on Solid Support
T7 construct: purchased DiscoveRx KINOMEscan
In short: as §1

[8] = molecular target: T8, EPHA7 (Homo sapiens, UniProt Q15375); settings: read-out: % Retention on Solid Support
T8 construct: purchased DiscoveRx KINOMEscan
In short: as §1

[9] = molecular target: T9, EPHB2 (Homo sapiens, UniProt P29323)
T9 construct: purchased DiscoveRx KINOMEscan
In short: as §1

[10] = molecular target: T10, FGFR1 (Homo sapiens, UniProt P11362); settings: read-out: % Retention on Solid Support
T10 construct: purchased DiscoveRx KINOMEscan
T10 sequence (P11362 22-822): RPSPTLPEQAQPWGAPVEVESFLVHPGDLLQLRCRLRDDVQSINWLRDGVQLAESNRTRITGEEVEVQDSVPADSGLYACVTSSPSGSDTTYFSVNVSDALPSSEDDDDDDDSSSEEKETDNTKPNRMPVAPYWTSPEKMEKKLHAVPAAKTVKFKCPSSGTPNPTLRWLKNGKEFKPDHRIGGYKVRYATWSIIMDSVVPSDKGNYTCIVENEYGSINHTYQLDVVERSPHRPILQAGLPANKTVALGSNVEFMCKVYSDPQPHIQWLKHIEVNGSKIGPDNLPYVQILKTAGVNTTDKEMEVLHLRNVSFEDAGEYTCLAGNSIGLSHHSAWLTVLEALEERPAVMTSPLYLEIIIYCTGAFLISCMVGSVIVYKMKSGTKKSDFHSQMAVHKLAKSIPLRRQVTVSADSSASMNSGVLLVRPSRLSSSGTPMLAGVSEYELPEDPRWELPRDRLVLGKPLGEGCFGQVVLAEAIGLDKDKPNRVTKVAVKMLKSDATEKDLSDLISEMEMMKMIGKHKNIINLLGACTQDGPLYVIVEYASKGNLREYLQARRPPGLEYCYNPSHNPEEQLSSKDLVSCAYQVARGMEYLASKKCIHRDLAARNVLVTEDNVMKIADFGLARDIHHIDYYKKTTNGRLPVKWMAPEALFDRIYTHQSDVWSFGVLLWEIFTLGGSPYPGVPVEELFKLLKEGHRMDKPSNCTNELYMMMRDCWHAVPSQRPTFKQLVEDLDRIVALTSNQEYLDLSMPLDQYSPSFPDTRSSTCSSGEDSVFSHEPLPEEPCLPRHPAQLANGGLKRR
In short: as §1

[11] = molecular target: T11, FGFR2 (Homo sapiens, UniProt P21802); settings: read-out: % Retention on Solid Support
T11 construct: purchased DiscoveRx KINOMEscan
In short: as §1

[12] = molecular target: T12, FGR (Homo sapiens, UniProt P09769); settings: read-out: % Retention on Solid Support
T12 construct: purchased DiscoveRx KINOMEscan
T12 sequence (P09769 whole entry): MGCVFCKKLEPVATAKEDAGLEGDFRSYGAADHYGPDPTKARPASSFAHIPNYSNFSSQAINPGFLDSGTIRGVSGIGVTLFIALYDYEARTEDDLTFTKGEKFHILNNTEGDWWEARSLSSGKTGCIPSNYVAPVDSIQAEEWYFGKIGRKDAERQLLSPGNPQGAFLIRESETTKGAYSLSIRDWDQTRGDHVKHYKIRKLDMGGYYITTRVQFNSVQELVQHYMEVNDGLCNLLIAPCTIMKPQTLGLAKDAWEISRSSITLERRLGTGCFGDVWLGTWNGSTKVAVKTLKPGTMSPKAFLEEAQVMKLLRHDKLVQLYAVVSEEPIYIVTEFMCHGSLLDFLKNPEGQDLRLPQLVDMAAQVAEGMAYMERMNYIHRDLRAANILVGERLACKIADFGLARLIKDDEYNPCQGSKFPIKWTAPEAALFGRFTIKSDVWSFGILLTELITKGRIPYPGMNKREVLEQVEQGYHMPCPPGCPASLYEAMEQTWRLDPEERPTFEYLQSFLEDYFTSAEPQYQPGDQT
In short: as §1

[13] = molecular target: T13, FLT3(D835H) (Homo sapiens, UniProt P36888, D835H); settings: read-out: % Retention on Solid Support
T13 construct: purchased DiscoveRx KINOMEscan
In short: as §1

[14] = molecular target: T14, FLT3(R834Q) (Homo sapiens, UniProt P36888, R834Q); settings: 1 µM i-CDK9; read-out: % Retention on Solid Support
T14 construct: purchased DiscoveRx KINOMEscan
In short: as §1

[15] = molecular target: T15, GCN2(Kin.Dom.2,S808G) (Homo sapiens, UniProt Q9P2K8, S808G); settings: read-out: % Retention on Solid Support
T15 construct: GCN2(Kin.Dom.2,S808G); purchased DiscoveRx KINOMEscan
In short: as §1

[16] = molecular target: T16, GRK1 (Homo sapiens, UniProt Q15835); settings: read-out: % Retention on Solid Support
T16 construct: purchased DiscoveRx KINOMEscan
T16 sequence (Q15835 whole entry): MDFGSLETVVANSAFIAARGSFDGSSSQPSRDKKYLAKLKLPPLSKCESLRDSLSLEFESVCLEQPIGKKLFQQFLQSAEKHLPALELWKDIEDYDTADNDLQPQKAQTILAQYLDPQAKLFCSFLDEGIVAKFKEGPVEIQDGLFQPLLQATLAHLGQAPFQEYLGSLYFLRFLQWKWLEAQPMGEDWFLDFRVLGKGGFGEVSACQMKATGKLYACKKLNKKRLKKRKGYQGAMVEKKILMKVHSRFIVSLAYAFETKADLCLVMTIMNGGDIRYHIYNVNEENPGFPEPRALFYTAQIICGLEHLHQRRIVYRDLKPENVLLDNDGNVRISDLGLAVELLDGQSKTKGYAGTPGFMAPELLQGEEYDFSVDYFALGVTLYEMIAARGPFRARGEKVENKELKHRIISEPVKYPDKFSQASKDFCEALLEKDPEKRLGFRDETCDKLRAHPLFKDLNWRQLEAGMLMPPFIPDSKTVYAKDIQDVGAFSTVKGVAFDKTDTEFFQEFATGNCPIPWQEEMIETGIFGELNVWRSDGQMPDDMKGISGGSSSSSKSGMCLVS
In short: as §1

[17] = molecular target: T17, GRK4 (Homo sapiens, UniProt P32298); settings: read-out: % Retention on Solid Support
T17 construct: purchased DiscoveRx KINOMEscan
In short: as §1

[18] = molecular target: T18, HCK (Homo sapiens, UniProt P08631); settings: read-out: % Retention on Solid Support
T18 construct: purchased DiscoveRx KINOMEscan
T18 sequence (P08631 whole entry): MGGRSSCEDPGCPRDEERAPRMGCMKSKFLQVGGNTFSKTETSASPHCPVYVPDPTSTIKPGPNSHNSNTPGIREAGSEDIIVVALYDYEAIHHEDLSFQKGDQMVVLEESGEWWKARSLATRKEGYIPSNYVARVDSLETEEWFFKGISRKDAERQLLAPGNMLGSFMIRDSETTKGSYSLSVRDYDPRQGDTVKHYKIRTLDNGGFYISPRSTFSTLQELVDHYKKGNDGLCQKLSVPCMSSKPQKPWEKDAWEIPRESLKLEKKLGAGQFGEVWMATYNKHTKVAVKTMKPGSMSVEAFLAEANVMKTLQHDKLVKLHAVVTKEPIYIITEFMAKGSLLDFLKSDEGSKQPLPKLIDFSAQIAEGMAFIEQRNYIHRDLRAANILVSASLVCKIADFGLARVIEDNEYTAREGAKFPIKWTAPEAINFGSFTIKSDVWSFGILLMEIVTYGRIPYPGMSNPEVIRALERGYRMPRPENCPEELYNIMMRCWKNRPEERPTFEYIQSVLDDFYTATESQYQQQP
In short: as §1

[19] = molecular target: T19, KIT(A829P) (Homo sapiens, UniProt P10721, A829P); settings: 1 µM i-CDK9; read-out: % Retention on Solid Support
T19 construct: purchased DiscoveRx KINOMEscan
In short: as §1

[20] = molecular target: T20, MARK1 (Homo sapiens, UniProt Q9P0L2); settings: read-out: % Retention on Solid Support
T20 construct: purchased DiscoveRx KINOMEscan
In short: as §1

[21] = molecular target: T21, MARK3 (Homo sapiens, UniProt P27448); settings: read-out: % Retention on Solid Support
T21 construct: purchased DiscoveRx KINOMEscan
In short: as §1

[22] = molecular target: T22, MEK5 (Homo sapiens, UniProt Q13163); settings: 1 µM i-CDK9; read-out: % Retention on Solid Support
T22 construct: purchased DiscoveRx KINOMEscan
In short: as §1

[23] = molecular target: T23, MKNK1 (Homo sapiens, UniProt Q9BUB5); settings: read-out: % Retention on Solid Support
T23 construct: purchased DiscoveRx KINOMEscan
In short: as §1

[24] = molecular target: T24, MLK3 (Homo sapiens, UniProt Q16584)
T24 construct: purchased DiscoveRx KINOMEscan
T24 sequence (Q16584 whole entry): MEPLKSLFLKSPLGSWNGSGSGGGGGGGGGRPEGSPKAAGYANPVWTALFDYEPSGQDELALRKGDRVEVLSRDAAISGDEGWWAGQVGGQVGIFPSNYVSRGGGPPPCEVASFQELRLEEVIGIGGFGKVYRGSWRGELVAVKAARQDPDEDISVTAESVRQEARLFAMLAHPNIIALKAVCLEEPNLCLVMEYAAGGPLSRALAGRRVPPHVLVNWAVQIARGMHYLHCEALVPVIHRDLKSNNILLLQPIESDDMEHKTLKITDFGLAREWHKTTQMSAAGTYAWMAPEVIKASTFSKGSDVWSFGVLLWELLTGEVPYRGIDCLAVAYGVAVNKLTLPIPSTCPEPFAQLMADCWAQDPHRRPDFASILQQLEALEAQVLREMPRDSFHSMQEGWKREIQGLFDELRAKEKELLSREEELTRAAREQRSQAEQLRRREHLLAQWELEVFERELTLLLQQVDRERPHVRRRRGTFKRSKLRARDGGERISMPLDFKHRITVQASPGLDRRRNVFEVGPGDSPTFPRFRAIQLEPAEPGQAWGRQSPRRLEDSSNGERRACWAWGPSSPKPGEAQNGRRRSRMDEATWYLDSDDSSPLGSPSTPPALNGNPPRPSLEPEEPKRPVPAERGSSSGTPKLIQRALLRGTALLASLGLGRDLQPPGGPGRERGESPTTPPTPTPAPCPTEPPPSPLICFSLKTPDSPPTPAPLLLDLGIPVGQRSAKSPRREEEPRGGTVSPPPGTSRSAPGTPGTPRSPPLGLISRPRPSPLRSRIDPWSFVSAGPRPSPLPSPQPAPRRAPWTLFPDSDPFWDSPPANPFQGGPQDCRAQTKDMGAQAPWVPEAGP
In short: as §1

[25] = molecular target: T25, PIK3CA(C420R) (Homo sapiens, UniProt P42336, C420R); settings: read-out: % Retention on Solid Support
T25 construct: purchased DiscoveRx KINOMEscan
In short: as §1

[26] = molecular target: T26, PRKCE (Homo sapiens, UniProt Q02156); settings: read-out: % Retention on Solid Support
T26 construct: purchased DiscoveRx KINOMEscan
In short: as §1

[27] = molecular target: T27, PRKX (Homo sapiens, UniProt P51817); settings: read-out: % Retention on Solid Support
T27 construct: purchased DiscoveRx KINOMEscan
In short: as §1

[28] = molecular target: T28, RPS6KA5(Kin.Dom.1-N-terminal) (Homo sapiens, UniProt O75582); settings: read-out: % Retention on Solid Support
T28 construct: RPS6KA5(Kin.Dom.1-N-terminal); purchased DiscoveRx KINOMEscan
In short: as §1

[29] = molecular target: T29, SLK (Homo sapiens, UniProt Q9H2G2); settings: read-out: % Retention on Solid Support
T29 construct: purchased DiscoveRx KINOMEscan
In short: as §1

N[C@H]1CC[C@H](Nc2cc(-c3cccc(NCc4cccc(F)c4)n3)c(Cl)cn2)CC1 [i-CDK9, N2′-(trans-4-aminocyclohexyl)-5′-chloro-N6-(3-fluorobenzyl)-2,4′-bipyridine-2′,6-diamine]
96%: remaining binding at 10 µM ([8]; 10 µM i-CDK9)
94%: remaining binding at 1 µM ([21]; 1 µM i-CDK9)
79%: remaining binding at 1 µM ([28]; 1 µM i-CDK9)
85%: % Retention on Solid Support ([24]; 1 µM i-CDK9)
71%: remaining binding at 10 µM ([21]; 10 µM i-CDK9)
70%: remaining binding at 10 µM ([2]; 10 µM i-CDK9) | remaining binding at 10 µM ([13]; 10 µM i-CDK9)
97%: remaining binding at 1 µM ([11]; 1 µM i-CDK9)
90%: remaining binding at 10 µM ([27]; 10 µM i-CDK9)
95%: remaining binding at 1 µM ([16]; 1 µM i-CDK9)
100%: remaining binding at 1 µM ([1]; 1 µM i-CDK9) | remaining binding at 10 µM ([1]; 10 µM i-CDK9) | remaining binding at 1 µM ([2]; 1 µM i-CDK9) | % binding to immobilized ligand [4] | remaining binding at 10 µM ([6]; 10 µM i-CDK9) | remaining binding at 1 µM ([7]; 1 µM i-CDK9) | remaining binding at 1 µM ([8]; 1 µM i-CDK9) | % Retention on Solid Support ([9]; 1 µM i-CDK9) | remaining binding at 1 µM ([10]; 1 µM i-CDK9) | remaining binding at 10 µM ([10]; 10 µM i-CDK9) | remaining binding at 10 µM ([11]; 10 µM i-CDK9) | remaining binding at 1 µM ([12]; 1 µM i-CDK9) | remaining binding at 1 µM ([13]; 1 µM i-CDK9) | remaining binding at 1 µM ([15]; 1 µM i-CDK9) | remaining binding at 10 µM ([15]; 10 µM i-CDK9) | remaining binding at 10 µM ([16]; 10 µM i-CDK9) | remaining binding at 1 µM ([17]; 1 µM i-CDK9) | remaining binding at 10 µM ([17]; 10 µM i-CDK9) | remaining binding at 10 µM ([18]; 10 µM i-CDK9) | remaining binding at 1 µM [19] | remaining binding at 10 µM ([20]; 10 µM i-CDK9) | remaining binding at 1 µM [22] | remaining binding at 1 µM ([23]; 1 µM i-CDK9) | remaining binding at 10 µM ([23]; 10 µM i-CDK9) | % Retention on Solid Support ([24]; 10 µM i-CDK9) | remaining binding at 1 µM ([25]; 1 µM i-CDK9) | remaining binding at 10 µM ([25]; 10 µM i-CDK9) | remaining binding at 1 µM ([26]; 1 µM i-CDK9) | remaining binding at 10 µM ([26]; 10 µM i-CDK9) | remaining binding at 1 µM ([27]; 1 µM i-CDK9) | remaining binding at 10 µM ([28]; 10 µM i-CDK9) | remaining binding at 1 µM ([29]; 1 µM i-CDK9) | remaining binding at 10 µM ([29]; 10 µM i-CDK9)
66%: % Retention on Solid Support ([9]; 10 µM i-CDK9)
36%: remaining binding at 1 µM [14]
91%: remaining binding at 1 µM ([3]; 1 µM i-CDK9) | remaining binding at 10 µM ([7]; 10 µM i-CDK9)
98%: remaining binding at 10 µM ([12]; 10 µM i-CDK9)
72%: remaining binding at 10 µM ([5]; 10 µM i-CDK9)
82%: remaining binding at 1 µM ([5]; 1 µM i-CDK9)
81%: remaining binding at 10 µM ([3]; 10 µM i-CDK9) | remaining binding at 1 µM ([18]; 1 µM i-CDK9)
99%: remaining binding at 1 µM ([6]; 1 µM i-CDK9) | remaining binding at 1 µM ([20]; 1 µM i-CDK9)
